Drawing on PubChem BioAssay (NCI), this text covers TGI and GI50 for 22 compounds.

Test systems include SF-539 CNS; M14 melanoma; MDA-N; MDA-MB-435; NCI-H522 lung; UACC-62 melanoma.
Common to all, as to assay: NCI-60 cell line screen, 48 h

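96-well plates; 48 h exposure; 5 concentrations. Endpoints by linear interpolation between flanking doses. Not reached: highest tested concentration assigned. GI50 = concentration required for 50% inhibition of growth. At the TGI there is no net growth.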 *1 amine or outer side, *2 acyl side, *3 side chain or, on linkers, in order; H or OH if unused. Where a SMILES comes first, the peptide text is derived from it. [ ]: non-standard residue; d: D form. X33 = C=CCC(O[*:1])C(=O)[*:2]; NMeV = CN[CH](C(=O)O)C(C)C; NMeA = CN[CH](C)C(=O)O; βAla = NCCC(=O)O

As for `NC(CCC(=O)O)(CCC(=O)O)CCC(=O)O`, the TGI with SF-539 CNS, in the experiment on M14 melanoma, in the experiment with MDA-N, in the experiment on MDA-MB-435, in the experiment on NCI-H522 lung and in the experiment on UACC-62 melanoma was over 100 µM in each case.

As to `C=CCC1OC(=O)CCNC(=O)C(C)N(C)C(=O)C(C(C)C)N(C)C(=O)C(C(C)CC)NC(=O)C2CCCN2C1=O` (configuration not stated) (cyclo([X33]PI[NMeV][NMeA][βAla]); configuration not given here), the TGI in the experiment with SF-539 CNS was over 100 µM; in the experiment on M14 melanoma, over 100 µM; with MDA-N, over 100 µM; in the experiment with MDA-MB-435, over 100 µM; in the experiment with NCI-H522 lung it was over 100 µM; in the experiment with UACC-62 melanoma, 7.43 µM.

For `O=C1CC(C(=O)N2CCCCC2)n2c(=O)n(-c3ccccc3)c(=O)n2C1` (configuration not stated), the TGI in the experiment with SF-539 CNS, in the experiment on M14 melanoma, in the experiment with MDA-N, in the experiment with NCI-H522 lung and with UACC-62 melanoma was over 100 µM throughout.

Turning to `CC(C)CCc1n[nH]c(=O)n1/N=C\c1ccccc1`, the TGI with SF-539 CNS, in the experiment with M14 melanoma, with MDA-N, with MDA-MB-435, in the experiment on NCI-H522 lung and in the experiment with UACC-62 melanoma was over 100 µM throughout.

In the case of `COc1ccc(C(=O)/C=C/c2cccnc2)cc1OC`, the TGI came to 6.4 µM in the experiment on SF-539 CNS; 26.6 µM in the experiment with M14 melanoma; 25.6 µM with MDA-N; 30.1 µM in the experiment with MDA-MB-435; 3.5 µM in the experiment on NCI-H522 lung; 28.4 µM in the experiment on UACC-62 melanoma.

Take `COc1cc(Oc2nc3c(N)cc(C(F)(F)F)cc3nc2-c2ccccc2)cc(OC)c1OC`: the TGI was 14.3 µM with SF-539 CNS; over 100 µM in the experiment with M14 melanoma; 3.08 µM in the experiment with MDA-N; 18.8 µM in the experiment on NCI-H522 lung; 15.9 µM with UACC-62 melanoma.

On to `O=c1c2cn[nH]c2nc2scc(-c3ccc(Cl)cc3)n12`, for which the TGI in the experiment with SF-539 CNS, in the experiment on M14 melanoma, with MDA-N, in the experiment with MDA-MB-435, in the experiment with NCI-H522 lung and with UACC-62 melanoma was over 100 µM each time.

On to `O=C(CNC(=O)OCc1ccccc1)NCCCCC(NC(=O)OCc1ccccc1)C(=O)NC(CCCCNC(=O)CNC(=O)OCc1ccccc1)C(=O)OCc1ccccc1` (configuration not stated), for which the TGI in the experiment with M14 melanoma, with MDA-MB-435, in the experiment on NCI-H522 lung and in the experiment on UACC-62 melanoma was over 62.5 µM each time.

Take `CC(C)(CO)NC(=O)Nc1c(C(F)(F)F)cc(-c2ccccc2)[nH]c1=O`: the TGI with M14 melanoma, in the experiment with MDA-N, in the experiment with MDA-MB-435, with NCI-H522 lung and in the experiment on UACC-62 melanoma was over 100 µM in each case.

Regarding `O=C(/C=C/c1ccc(Cl)cc1)c1cccs1`, the TGI in the experiment on SF-539 CNS was over 100 µM; in the experiment on M14 melanoma, 36.3 µM; in the experiment on MDA-N, 31.6 µM; in the experiment with MDA-MB-435, 25.9 µM; in the experiment with UACC-62 melanoma, 49.2 µM.

With `O=C(NCCc1ccccc1)c1c(O)c2ccccc2[nH]c1=O`, the TGI in the experiment on SF-539 CNS, with MDA-N, with MDA-MB-435 and in the experiment on NCI-H522 lung was over 100 µM each time.

Turning to `CCOc1cc2c(cc1O)/C(=N/NS(=O)(=O)c1ccc(C)cc1)C[C@@H]1[C@@H]2CC[C@]2(C)[C@@H](O)CC[C@@H]12`, the TGI in the experiment with SF-539 CNS is 65.6 µM; in the experiment with M14 melanoma, over 100 µM; in the experiment with MDA-MB-435, over 100 µM; in the experiment with NCI-H522 lung, over 100 µM. In the experiment with MDA-MB-435, the GI50 is 917 nM.

For the compound `Clc1nc(NCCc2ccccc2)c2ncn(-c3ccccc3)c2n1`, the TGI came out at 49.7 µM in the experiment with M14 melanoma; 40.2 µM in the experiment on MDA-N; 35.1 µM in the experiment on MDA-MB-435; 56.4 µM in the experiment on NCI-H522 lung; 56.7 µM in the experiment with UACC-62 melanoma.

As to `O=S(=O)(O)c1ccc2c(N=Nc3ccc(F)cc3)c(O)c(S(=O)(=O)O)cc2c1`, the TGI with M14 melanoma, in the experiment with MDA-N, in the experiment with MDA-MB-435, in the experiment on NCI-H522 lung and in the experiment with UACC-62 melanoma was over 100 µM in each case.

`CC1(C)OC(=O)C2(O1)C(=O)C1CCCCC12` (configuration not stated): the TGI with M14 melanoma, in the experiment with MDA-N, in the experiment with MDA-MB-435, with NCI-H522 lung and in the experiment with UACC-62 melanoma was over 100 µM throughout.

For `O=C(Cc1ccccc1)NNc1nc(NNC(=O)c2ccncc2)nc(Nc2cccc(Cl)c2)n1`, the TGI with SF-539 CNS, with M14 melanoma, with MDA-N and in the experiment on UACC-62 melanoma was over 10 µM throughout.

With `COC(=O)C1(Cc2ccc3c(c2)CCC3)Cc2ccc3c(c2C1)CCC3` (configuration not stated), the TGI was over 100 µM in the experiment with SF-539 CNS; 41 µM in the experiment on MDA-N; 39 µM with MDA-MB-435; 45.1 µM with NCI-H522 lung; over 100 µM in the experiment on UACC-62 melanoma.

In the case of `O=c1oc(-c2ccccc2)c(-c2ccccc2)n1-c1ccc(Br)cc1`, the TGI was 53.8 µM with SF-539 CNS; over 100 µM with M14 melanoma; over 100 µM in the experiment with MDA-MB-435; 62.7 µM with NCI-H522 lung; over 100 µM in the experiment with UACC-62 melanoma.

On to `CC(C)C/C=C/C1=NN(c2cccc(S(=O)(=O)O)c2)C2(C1)SCC(=O)N2c1nc2ccccc2s1` (configuration not stated), for which the TGI in the experiment on SF-539 CNS was over 100 µM; with M14 melanoma, over 100 µM; in the experiment with MDA-MB-435, 84.6 µM; with NCI-H522 lung, 60.2 µM; with UACC-62 melanoma it was over 100 µM.

With `CCOc1ccc(NCC2CC/C(=C\c3ccc(O)cc3)C2=O)cc1` (configuration not stated), the TGI in the experiment with SF-539 CNS stood at 36.1 µM; in the experiment on M14 melanoma it was 36 µM; in the experiment with MDA-MB-435, 35.8 µM; in the experiment on NCI-H522 lung, 11.7 µM; with UACC-62 melanoma it was 37.7 µM.

Regarding `Oc1ccc(/C=C/c2ccc3cccc(O)c3n2)cc1O`, the TGI in the experiment with SF-539 CNS is 9.46 µM; in the experiment with M14 melanoma it was 7.46 µM; in the experiment with MDA-N, 44.7 µM; in the experiment on MDA-MB-435, over 100 µM; in the experiment on UACC-62 melanoma it was 23.8 µM.

Consider `C/C(CC1SCCCS1)=C(/C)CC1SCCCS1`, for which the TGI in the experiment on SF-539 CNS, with M14 melanoma, with MDA-N, in the experiment on MDA-MB-435 and with UACC-62 melanoma was over 100 µM throughout.
